Reference: ChEMBL document CHEMBL1139674 (Bioorg Med Chem Lett, 2006)

Key:
[1] = molecular target: Tyrosinase (Agaricus bisporus); assay: Inhibition of tyrosinase
[2] = Cytotoxicity against human BC cells; assay type: cell-based
KB [3] = assay: Cytotoxicity against human KB cells; assay type: cell-based
[4] = Cytotoxicity against human NCI-H187 cells; assay type: cell-based
KB [5] = assay: Cytotoxicity against human KB cells at 20 ug/ml; assay type: cell-based
[6] = Cytotoxicity against human NCI-H187 cells at 20 ug/ml; assay type: cell-based
[7] = Cytotoxicity against human BC cells at 20 ug/ml; assay type: cell-based
Tyrosinase [8] = molecular target: T1, Tyrosinase (Agaricus bisporus, UniProt O42713); assay: Inhibition of mushroom tyrosinase at 1.2 uM
T1 sequence (O42713 whole entry): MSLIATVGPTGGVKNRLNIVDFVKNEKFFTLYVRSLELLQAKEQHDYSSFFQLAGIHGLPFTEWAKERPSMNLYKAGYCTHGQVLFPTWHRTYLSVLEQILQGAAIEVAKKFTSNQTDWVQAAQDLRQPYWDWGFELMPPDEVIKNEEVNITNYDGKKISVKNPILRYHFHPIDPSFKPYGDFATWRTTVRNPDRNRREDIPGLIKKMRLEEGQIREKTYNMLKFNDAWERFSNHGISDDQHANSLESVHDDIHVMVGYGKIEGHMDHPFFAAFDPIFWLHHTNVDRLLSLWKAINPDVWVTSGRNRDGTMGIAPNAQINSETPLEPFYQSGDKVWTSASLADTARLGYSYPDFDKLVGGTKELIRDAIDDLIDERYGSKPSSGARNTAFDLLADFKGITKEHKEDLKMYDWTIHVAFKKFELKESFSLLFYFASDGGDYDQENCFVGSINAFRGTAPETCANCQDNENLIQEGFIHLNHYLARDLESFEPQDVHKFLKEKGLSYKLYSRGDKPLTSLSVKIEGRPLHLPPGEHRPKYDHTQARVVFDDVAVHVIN

Tyrosinase [9] = molecular target: T1, Tyrosinase; assay: Inhibition of mushroom tyrosinase at 2.4 uM
Tyrosinase [10] = molecular target: T1, Tyrosinase; assay: Inhibition of mushroom tyrosinase at 9.2 uM
Tyrosinase [11] = molecular target: T1, Tyrosinase; assay: Inhibition of mushroom tyrosinase at 18.4 uM

Structure (SMILES)	IC50 [1] [µM]	IC50 [2] [µM]	IC50 (KB [3]) [µM]	IC50 [4] [µM]	Activity (KB [5]) [%]	Activity [6] [%]	Activity [7] [%]	also measured
COc1cc(O)cc(/C=C/c2ccc(OC)cc2O)c1	> 100	13.9	16.5	33.5				
COc1cc(O)ccc1/C=C/c1cc(O)cc(O)c1	> 100	66.6			< 50	< 50		
COc1cc(O)cc(/C=C/c2ccc(O)cc2OC)c1	> 100	10.8	5.5	10.9				
Oc1cc(O)cc(CCc2ccc(O)cc2O)c1	1.6				< 50	< 50	< 50	Ki (Tyrosinase [8]): 4.8 µM; Ki (Tyrosinase [9]): 5.6 µM
COc1cc(/C=C\c2ccc(OC)cc2OC)cc(OC)c1		1	0.3	0.3				
COc1cc(CCc2ccc(OC)cc2OC)cc(OC)c1	> 100				< 50	< 50	< 50	
COc1cc(/C=C/c2ccc(OC)cc2OC)cc(OC)c1		5.6	8.6	8				
COc1cccc2c1C(=O)c1c(O)c3c(c(O)c1C2=O)C[C@@](O)(C(=O)CO)C[C@@H]3O[C@H]1C[C@H](N)[C@H](O)[C@H](C)O1 [DOXORUBICIN]		0.5		0.1				
Cc1c2ccncc2c(C)c2c1[nH]c1ccccc12 [ELLIPTECINE]		2.7	2.4	1.9				
Oc1cc(O)cc(/C=C/c2ccc(O)cc2O)c1 [OXYRESVERATROL]					< 50	< 50	< 50	Ki (Tyrosinase [10]): 22 µM; Ki (Tyrosinase [11]): 28 µM
